Converted amounts (≈) assume the structure as drawn. Like-named read-outs stand apart in the source and are kept apart here.
Assays:
M. marinum strain M [1] = assay type: in vivo, zebrafish (Danio rerio); details: zebrafish, in vivo
in vivo = details: mouse, in vivo
Procedure: Table S5. Principal pharmacokinetic properties1
1 See Figure S5 for primary data.
Compound levels were measured in serum from individual female mice (3/time point) that had received a single dose of 25 mg/kg. Maximum concentration (Cmax); area under the curve (AUC); apparent clearance.
Comparative pharmacokinetic analysis. After receiving a single dose
(25 mg/kg) of PBTZ169 or BTZ043 by gavage, groups of three female mice were sacrificed at the times indicated, blood was obtained by cardiac puncture and the drug levels in serum determined by LC-MS/MS technique (limit of quantification 10 μg/L).

M. marinum strain E11 = test: Zebrafish embryo infection model, M. marinum strain E11; details: 25 nM for 5, 4 or 3 days
Procedure: The number of colony forming units (CFU) per embryo was determined and compared to the level of fluorescence.
Zebrafish embryos were infected with either M. marinum strain M (A, B) or E11 (C, D). […] The bacterial burden was assessed by fluorescence microscopy and customized software to quantify the number of fluorescent pixels (A and C), and by enumeration of the CFU in lysed embryos (B and D), immediately after imaging was performed. In B and D, each data point represents the mean number of CFU per embryo of 3 embryo extracts plated, the bars indicate means and s.e.m. after log transformation. […]
Volumes of 1 nl of bacterial suspension, containing 50-200 CFU were injected into the caudal vein of embryonic zebrafish at approximately 28 h post fertilization. At 5 days post infection, embryos were monitored using fluorescence microscopy (Leica MZ16FA). Brightfield and fluorescent images were generated with a Leica DFC420C camera and subsequently fluorescent images were analyzed with customized software to quantify infection levels.
Twelve infected embryos were incubated at 28°C in petri dishes of 4 cm diameter containing 4 ml sterilized egg water (60 μg/ml instant ocean sea salts) with 0.003% 1-phenyl-2-thiourea (Sigma) to prevent melanization. All drug treatment experiments were performed in egg water containing 1% DMSO and analyzed at 5 days post infection (dpi). […]

M. massiliense 2005-0484 = test: MIC99 by REMA; assay type: cell-based
[2] = system: M. tuberculosis clinical isolate 5253; test: Drug susceptibility testing on solid Löwenstein-Jensen medium; assay type: cell-based; details: Mycobacterium tuberculosis
[3] = system: M. tuberculosis clinical isolate 6418; test: as above; assay type: cell-based; details: Mycobacterium tuberculosis
[4] = mouse
M. bovis BCG BN2 = assay type: cell-based, Mycobacterium bovis BCG
M. tuberculosis DprE1 = M. tuberculosis DprE1 (Mycobacterium tuberculosis, UniProt P9WJF1); test: DprE1 inhibition, two step peroxidase-coupled assay with Amplex Red; assay type: biochemical
Chain of M. tuberculosis DprE1 (P9WJF1 whole entry, looked up): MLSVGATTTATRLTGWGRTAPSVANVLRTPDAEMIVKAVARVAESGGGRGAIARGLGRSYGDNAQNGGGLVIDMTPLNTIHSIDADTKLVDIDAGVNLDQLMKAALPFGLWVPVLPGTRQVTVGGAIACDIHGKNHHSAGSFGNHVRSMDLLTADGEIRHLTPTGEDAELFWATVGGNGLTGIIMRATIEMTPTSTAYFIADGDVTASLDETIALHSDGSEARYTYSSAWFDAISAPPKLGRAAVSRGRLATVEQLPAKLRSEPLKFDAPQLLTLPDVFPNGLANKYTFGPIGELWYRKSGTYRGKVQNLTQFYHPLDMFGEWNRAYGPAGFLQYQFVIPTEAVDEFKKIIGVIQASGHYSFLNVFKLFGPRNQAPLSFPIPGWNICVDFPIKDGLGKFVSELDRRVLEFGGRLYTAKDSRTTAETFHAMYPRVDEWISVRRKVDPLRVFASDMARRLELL

M. tuberculosis H37Rv [5] = test: Drug susceptibility testing on solid Löwenstein-Jensen medium; assay type: cell-based; details: Mycobacterium tuberculosis, H37RV
C. glutamicum ATCC 13032 = test: MIC99 by REMA; assay type: cell-based, Corynebacterium glutamicum
M. bovis BCG Pasteur = test: microbe, parasite or virus in culture; assay type: cell-based, Mycobacterium bovis BCG
M. vaccae ATCC 15483 = test: MIC99 by REMA; assay type: cell-based
M. avium ATCC 15769 = test: MIC99 by REMA; assay type: cell-based
M. smegmatis mc^2155 = test: MIC99 by REMA; assay type: cell-based, Mycobacterium smegmatis
in vitro [6] = details: mouse, microsomes
C. diphtheriae DSM 44123 = test: MIC99 by REMA; assay type: cell-based, Corynebacterium diphtheriae
[7] = system: M. tuberculosis clinical isolate 6374; test: Drug susceptibility testing on solid Löwenstein-Jensen medium; assay type: cell-based; details: Mycobacterium tuberculosis
[8] = system: M. tuberculosis clinical isolate 6448; test: as above; assay type: cell-based; details: Mycobacterium tuberculosis
[9] = system: M. tuberculosis clinical isolate 5055; test: as above; assay type: cell-based; details: Mycobacterium tuberculosis
M. marinum Strain M [10] = test: MIC99 by REMA; assay type: cell-based, Mycobacterium marinum
M. abscessus 2005-0524 = test: MIC99 by REMA; assay type: cell-based
[11] = system: M. tuberculosis clinical isolate 7384; test: Drug susceptibility testing on solid Löwenstein-Jensen medium; assay type: cell-based; details: Mycobacterium tuberculosis
[12] = target: T1, purified recombinant M. smegmatis NfnB (Mycolicibacterium smegmatis, UniProt A0R6D0); test: NfnB-mediated nitroreduction followed by LC-MS; assay type: biochemical
T1 construct: made in house
T1 sequence (A0R6D0 whole entry): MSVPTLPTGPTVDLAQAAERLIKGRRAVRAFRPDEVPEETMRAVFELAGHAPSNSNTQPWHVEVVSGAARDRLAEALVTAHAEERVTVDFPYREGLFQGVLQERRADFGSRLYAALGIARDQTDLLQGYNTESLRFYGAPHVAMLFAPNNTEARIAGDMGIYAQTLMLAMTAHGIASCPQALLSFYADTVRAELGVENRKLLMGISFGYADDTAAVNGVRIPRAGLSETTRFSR

M. tuberculosis H37Rv [13] = assay type: in vivo, BALB/c mice; details: mouse, in vivo
[14] = system: M. tuberculosis clinical isolate 4328; test: Drug susceptibility testing on solid Löwenstein-Jensen medium; assay type: cell-based; details: Mycobacterium tuberculosis
M. tuberculosis H37Rv [15] = test: MIC by resazurin reduction microplate assay (REMA); assay type: cell-based, Mycobacterium tuberculosis
[16] = system: M. tuberculosis clinical isolate 6412; test: Drug susceptibility testing on solid Löwenstein-Jensen medium; assay type: cell-based; details: Mycobacterium tuberculosis
[17] = human
M. bolletii 1999-0888 = test: MIC99 by REMA; assay type: cell-based
M. smegmatis GM22 = test: microbe, parasite or virus in culture; assay type: cell-based; details: for MIC99: M. smegmatis GM22, overproduces NfnB nitroreductase
in vitro [18] = details: human, microsomes
zebrafish embryos = assay type: in vivo, zebrafish (Danio rerio); details: zebrafish, in vivo
Procedure: On examination of infected zebrafish embryos treated with BTZ043 it was observed that the compound affected embryo development (Fig 6A–G) especially at concentrations above 25 nM. […] These defects were also observed when uninfected embryos were exposed to BTZ043.
Figure 6 Effect of BTZ043 on M. marinum infected zebrafish embryo development. A–D M. marinum infected zebrafish embryos were treated with BTZ043 for 5 days at the concentrations indicated and photographed using a Leica DFC420C camera. The M strain was used for infection. E–F Images of the notochord from untreated and treated zebrafish, arrows indicate developmental abnormalities. G Analysis of zebrafish embryos displaying developmental abnormalities treated with BTZ043 (BTZ) or PBTZ169 (PBTZ) at the concentrations indicated.

M. tuberculosis H37Rv [19] = test: In vitro combination studies, REMA checkerboard; assay type: cell-based
[20] = system: M. tuberculosis clinical isolate 6341; test: Drug susceptibility testing on solid Löwenstein-Jensen medium; assay type: cell-based; details: Mycobacterium tuberculosis
M. tuberculosis MDR_CHUV = test: MIC99 by REMA; assay type: cell-based, Mycobacterium tuberculosis
M. smegmatis MN47 = assay type: cell-based; details: M. smegmatis MN47, DprE1 Cys394Gly
M. smegmatis MN84 = assay type: cell-based; details: M. smegmatis MN84, DprE1 Cys394Ser
[21] = Mycobacterium tuberculosis, H37RV

Compound: O=c1nc(N2CCN(CC3CCCCC3)CC2)sc2c([N+](=O)[O-])cc(C(F)(F)F)cc12 [PBTZ169]
- bacterial burden in infected zebrafish embryos (fluorescence) (M. marinum strain M [1]): almost no bacteria were present
- decrease in number of CFU per embryo (M. marinum strain M [1]): about 3 log units
- effect on the infection in zebrafish embryos (M. marinum strain M [1]): no significant effect
- time the serum level remains well above MIC (in vivo; female): > 21 h
- Cmax (in vivo; female, po, 25 mg/kg): 1850 ng/mL
- half-life (in vivo; female, po, 25 mg/kg): 111 min
- k el (in vivo; female, po, 25 mg/kg): 0.000104 s⁻¹
- AUC (in vivo; po, 25 mg/kg): 193487 µg·min/L
- decrease in number of CFU per embryo (M. marinum strain E11): ~2 log units
- MIC99 (M. massiliense 2005-0484; Mycobacteroides abscessus, 20050484): > 100 µg/mL
- MIC [2]: 0.063 µg/mL (≈ 0.138 µM)
- MIC [3]: 0.063 µg/mL (≈ 0.138 µM)
- clearance on incubation with microsomes (in words) [4]: medium clearance values
- MIC99 (M. bovis BCG BN2): >100 µg/mL
- fold increased resistance conferred by the Cys387Ser mutation in DprE1 (M. bovis BCG BN2): > 10 000 fold
- concentration giving full inhibition of DprE1 (M. tuberculosis DprE1): 5 µM
- MIC (M. tuberculosis H37Rv [5]): 0.031 µg/mL (≈ 0.0679 µM)
- MIC99 (C. glutamicum ATCC 13032; Corynebacterium glutamicum, ATCC13032): 0.013 µg/mL (≈ 0.0285 µM)
- MIC99 (M. bovis BCG Pasteur; Mycobacterium tuberculosis variant bovis BCG, BCG): 0.6 ng/mL (≈ 0.00131 µM)
- MIC99 (M. vaccae ATCC 15483; Mycolicibacterium vaccae, ATCC15483): > 100 µg/mL
- MIC99 (M. avium ATCC 15769; Mycobacterium avium, ATCC15769): > 100 µg/mL
- MIC99 (M. smegmatis mc^2155; Mycolicibacterium smegmatis, MC^2155): 0.7 ng/mL (≈ 0.00153 µM)
- microsomal CLint (in vitro [6]): 24.3 µL/min/mg
- MIC99 (C. diphtheriae DSM 44123; Corynebacterium diphtheriae, DSM44123): 3 ng/mL (≈ 0.00657 µM)
- MIC [7]: 0.063 µg/mL (≈ 0.138 µM)
- MIC [8]: 0.063 µg/mL (≈ 0.138 µM)
- MIC [9]: 0.063 µg/mL (≈ 0.138 µM)
- MIC99 (M. marinum Strain M [10]; Mycobacterium marinum): 0.3 ng/mL (≈ 0.000657 µM)
- MIC99 (M. abscessus 2005-0524; Mycobacteroides abscessus, 20050524): > 100 µg/mL
- MIC [11]: 0.063 µg/mL (≈ 0.138 µM)
- NfnB-mediated reduction, species found by LC-MS [12]: the major species found in the LC-MS analysis was the original nitro form
- activity in dose escalation study (in words) (M. tuberculosis H37Rv [13]): active at all the concentrations tested
- reduction of CFU in the lungs in comparison to BTZ043 at the same dose (M. tuberculosis H37Rv [13]): > 0.5 log
- reduction of bacterial burden in the spleens, fold more than BTZ043 (M. tuberculosis H37Rv [13]): 10 fold
- MIC [14]: 0.063 µg/mL (≈ 0.138 µM)
- MIC (M. tuberculosis H37Rv [15]; [21]): ≤ 0.19 ng/mL
- MIC99 (M. tuberculosis H37Rv [15]; [21]): 0.3 ng/mL (≈ 0.000657 µM)
- MIC (M. tuberculosis H37Rv [15]; Mycobacterium tuberculosis, H37RV, read-out: MIC M. tuberculosis): ≤ 0.19 ng/mL
- MIC [16]: 0.031 µg/mL (≈ 0.0679 µM)
- clearance on incubation with microsomes (in words) [17]: medium clearance values
- MIC99 (M. bolletii 1999-0888; Mycobacteroides abscessus, 19990888): > 100 µg/mL
- MIC (M. smegmatis GM22; Mycolicibacterium smegmatis, GM22, read-out: MIC for GM22): 5 ng/mL (≈ 0.011 µM)
- MIC99 (M. smegmatis GM22; Mycolicibacterium smegmatis, read-out: MIC99): 3 ng/mL (≈ 0.00657 µM)
- microsomal CLint (in vitro [18]): 24.8 µL/min/mg
- developmental defects in zebrafish embryos (in words) (zebrafish embryos): no developmental defects were seen
- ΣFIC (sum of the fractional inhibitory concentrations) (M. tuberculosis H37Rv [19]): 0.5
- selectivity index (HepG2 human cell line; HepG2 cytotoxicity relative to MIC): > 10 000
- TD99 (HepG2 human cell line; human): > 200 µg/mL
- MIC [20]: 0.031 µg/mL (≈ 0.0679 µM)
- MIC99 (M. tuberculosis MDR_CHUV; Mycobacterium tuberculosis): 0.4 ng/mL (≈ 0.000876 µM)

Compound: moxifloxicin [MXF]
- MIC99 (M. massiliense 2005-0484): 0.96 µg/mL
- MIC99 (M. bovis BCG BN2): 0.03 µg/mL
- MIC99 (C. glutamicum ATCC 13032): 0.31 µg/mL
- MIC99 (M. bovis BCG Pasteur): 20 ng/mL
- MIC99 (M. vaccae ATCC 15483): 0.63 µg/mL
- MIC99 (M. avium ATCC 15769): 0.47 µg/mL
- MIC99 (M. smegmatis mc^2155): 60 ng/mL
- MIC99 (C. diphtheriae DSM 44123): 20 ng/mL
- MIC99 (M. marinum Strain M [10]): 100 ng/mL
- MIC99 (M. smegmatis MN47): 0.06 µg/mL
- MIC99 (M. abscessus 2005-0524): 0.78 µg/mL
- MIC99 (M. tuberculosis H37Rv [15]): 30 ng/mL
- MIC99 (M. bolletii 1999-0888): 0.94 µg/mL
- MIC99 (M. smegmatis GM22): 60 ng/mL
- MIC99 (M. smegmatis MN84): 0.06 µg/mL
- MIC99 (M. tuberculosis MDR_CHUV): 30 ng/mL

From publication PMC3958311 (EMBO Molecular Medicine, 2014)
